Assay results published in patent publication US11974985B2, “Composition of aminopyran derivative” (HAISCO PHARMACEUTICAL GROUP CO., LTD., priority 2018, dated 2024).

Assay: Compatibility test of compound of formula (I) with lactose, change of impurities
Format: physicochemical
Details: room temperature
Description: A compatibility test was carried out with lactose (a reducing sugar) and the compound of formula (I) at room temperature in which, after both were mixed in a certain ratio, the changes of impurity in the compound of formula (I) were tested.

For CS(=O)(=O)n1cc2c(n1)CN([C@@H]1C[C@H](N)[C@@H](c3cc(F)ccc3F)O[C@@H]1C(F)(F)F)C2 [Compound of formula (I)], the “Main peak area (%)” value was 99.247%, the Number of impurities was 5 and the “Total impurities (%)” value was 0.753%.
